The values below are quoted from earlier work in patent US10912731B2, “Biphasic oral care compositions” (Colgate-Palmolive Company, priority 2017, dated 2021).

For this data set the following is noted: aqueous solution.

Consider `NCCCC[C@H](N)C(=O)O` [lysine], for which the Isoelectric point is 9.7 pH.
